Values quoted from earlier work in patent publication US11737985B2 (priority 2013, dated 2023).
Read-outs that look alike come from different tables or passages of the source.

Tests used:
[1] = in vivo; cited from earlier work
[2] = cited from earlier work; for mean concentration in plasma: cancer patients; for Cmax / Tmax: single dose 182 mg controlled-release tablet

For `NNc1nncc2ccccc12` [hydralazine, 1-hydrazinophthalazine], the systemic clearance [1] is listed as “approximately 50 ml/kg/min”, the “mean concentration in plasma” value ([2]; fast acetylators, 182 mg daily controlled-release) is listed as 239.1 ng/mL and the “mean concentration in plasma” value ([2]; slow acetylators, 83 mg daily controlled-release) is listed as 259.2 ng/mL. For the same molecule, the Cmax ([2]; fast acetylators, ± SD) was 208.4 ± 56.9 ng/mL, the Tmax ([2]; fast acetylators) was 2.8 ± 2.5 h and the Cmax ([2]; slow acetylators) was 470.4 ± 162.8 ng/mL. The Tmax ([2]; slow acetylators) was 4.4 ± 3.1 h.
